Test results from paper PMC7312375, “A Novel, Pan-PDE Inhibitor Exerts Anti-Fibrotic Effects in Human Lung Fibroblasts via Inhibition of TGF-β Signaling and Activation of cAMP/PKA Signaling” (International Journal of Molecular Sciences, 2020).

What was measured:
PDE4A = biological target: T1, PDE4A (Homo sapiens, UniProt P27815); assay: PDE-Glo assay, human recombinant PDE4A; assay type: biochemical; settings: read-out: PDE-IC50 4A
T1 construct: purchased SignalChem
Protocol: (§1) Inhibitory activities of the investigated compounds against various subtypes of human recombinant (hr)PDEs, namely PDE1A, PDE1B, PDE1C, PDE3A, PDE3B, PDE4A, PDE4B, PDE4D, PDE7A, and PDE8A were assessed using a PDE-Glo^TM Assay Kit (Promega, Madison, WI, USA) according to the protocol provided by the manufacturer. Briefly, appropriate amounts of each enzyme (SignalChem, Richmond, B.C., Canada), diluted with PDE-Glo reaction buffer, were distributed on a 384-well plate (Thermo Scientific, Waltham, MA, USA). The investigated compounds were dissolved in DMSO, diluted with the same vehicle, and mixed with the reaction buffer at a v/v ratio of 1:5. Thereafter, 1 µL of these mixtures and 2.5 µL of the cAMP solution as a substrate were added. The final cAMP concentration was 0.05 µM. The samples were incubated for 10 min at 30 °C. Then, 2.5 µL of termination buffer and 2.5 µL of PDE-Glo detection solution were added to each well and incubated for 20 min. Finally, 10 µL of PDE-Glo kinase reagent was added, and luminescence was measured using the POLARstar Omega plate reader (BMG LABTECH, Ortenberg, Germany). Each sample was prepared in quadruplicate. The relative activities (A, %) of all samples were calculated from the following equation: A = [(LUsample − LUblank)/(LUcontrol − LUblank)]·100%; where LUcontrol is the luminescence of a control sample in the absence of a PDE inhibitor, LUsample is a luminescence of an investigated sample in the presence of an inhibitor, and LUblank is a luminescence of a sample in the absence of enzyme (activity = 0). IC50 values were estimated using non-linear regression.

PDE5A = PDE5A (Homo sapiens, UniProt O76074); design: method as in PMID 31705904; settings: published previously; read-out: PDE-IC50 5A; cited from earlier work
PDE1A = biological target: T2, PDE1A (Homo sapiens, UniProt P54750); assay: PDE-Glo assay, human recombinant PDE1A; assay type: biochemical; settings: n.a. = not active; read-out: PDE-IC50 1A
T2 construct: purchased SignalChem
Protocol: as §1, with “Then, 2.5 µL of termination buffer and 2.5 µL of PDE-Glo detection solution were added to each well and incubated for 20 min.” left out, “Each sample was prepared in quadruplicate.” left out, “IC50 values were estimated using non-linear regression.” left out

PDE3A = biological target: T3, PDE3A (Homo sapiens, UniProt Q14432); design: method as in PMID 31705904; settings: published previously; read-out: PDE-IC50 3A; cited from earlier work
T3 construct: purchased SignalChem

PDE1B = biological target: T4, PDE1B (Homo sapiens, UniProt Q01064); design: method as in PMID 31705904; settings: published previously; read-out: PDE-IC50 1B; cited from earlier work
T4 construct: purchased SignalChem

MRC-5 cells = assay: Intracellular calcium measurements (Fluo-4); assay type: cell-based, human
Protocol: MRC-5 cells were briefly washed with NaHEPES buffer (NaHEPES buffer was prepared as follows: NaCl 140 mM, KCl 4.7 mM, HEPES 10 mM, MgCl2 1 mM, glucose 10 mM; pH 7.3) and then loaded with 1 µM Fluo-4 AM (Thermo Fisher Scientific, Waltham, MA, USA) for 1 h, 37 °C in NaHEPES. After the incubation, the cells were washed again with fresh NaHEPES and used for experiments in a flow chamber perfused with NaHEPES-based extracellular solution supplemented with 1 mM CaCl2. All experiments were carried out at room temperature using Zeiss LSM 880 confocal microscope (40× oil objective), excitation was set to 488 nm, and the emission was between 500 and 600 nm. Each series of images was recorded at 256 × 256-pixel resolution, two consecutive frames were averaged, and the interval between the averaged images was set at 2 s. Fluorescence signals were plotted as F/F0, where F0 was baseline fluorescence defined as the averaged signal from ten consecutive baseline images.

PDE4B = biological target: T5, PDE4B (Homo sapiens, UniProt Q07343); settings: published previously; read-out: PDE-IC50 4B; cited from earlier work
T5 construct: purchased SignalChem

[1] = test system: TGF-β1-induced MRC-5 cells; assay: Immunofluorescence, nuclear localization of p-Smad-2; assay type: cell-based, human; settings: 10 µM; compared to TGF-β1 alone
Protocol: For immunocytochemical labeling, MRC-5 cells were seeded on glass coverslips. Study compounds (10 µM) were added 1 h before TGF-β1 treatment, and analysis was performed after 1 h (p-Smad-2 and p-CREB detection) or 48 h (α-SMA detection) of incubation. Cells were fixed in methanol or 4% formaldehyde solution, permeabilized in 0.2% or 0.1% Triton X-100 solution (for p-Smad-2 and p-CREB or α-SMA, respectively). After incubation in blocking solution the following primary antibodies: rabbit polyclonal, anti-phospho-Smad-2 (Ser465, Ser467) antibody (#44-244G, Thermo Fisher Scientific, Waltham, MA, USA); rabbit polyclonal, anti-phospho-CREB1 (Ser133) antibody (#orb213775, Biorbyt, Cambridge, United Kingdom); mouse monoclonal, anti-α-SMA antibody (#MA5-11547, Thermo Fisher Scientific, Waltham, MA, USA) and secondary antibodies: goat anti-rabbit Alexa Fluor 546 conjugated antibody and goat anti-mouse Alexa Fluor 488 conjugated antibody (#A-11010 and #A-11001, respectively, Invitrogen, Carlsbad, CA, USA) were used. […] Slides were mounted in ProLong™ Glass Antifade Mountant (Invitrogen, Carlsbad, CA, USA) and analyzed using Leica DMiL LED Fluo microscope (for α-SMA and p-CREB visualization, 40× objective) or Leica DMi8 with Thunder Imaging System (for p-Smad-2 visualization, 40× objective), all equipped with LAS-X Software (Leica Microsystems GmbH, Wetzlar, Germany). […]

T1 sequence (P27815 whole entry): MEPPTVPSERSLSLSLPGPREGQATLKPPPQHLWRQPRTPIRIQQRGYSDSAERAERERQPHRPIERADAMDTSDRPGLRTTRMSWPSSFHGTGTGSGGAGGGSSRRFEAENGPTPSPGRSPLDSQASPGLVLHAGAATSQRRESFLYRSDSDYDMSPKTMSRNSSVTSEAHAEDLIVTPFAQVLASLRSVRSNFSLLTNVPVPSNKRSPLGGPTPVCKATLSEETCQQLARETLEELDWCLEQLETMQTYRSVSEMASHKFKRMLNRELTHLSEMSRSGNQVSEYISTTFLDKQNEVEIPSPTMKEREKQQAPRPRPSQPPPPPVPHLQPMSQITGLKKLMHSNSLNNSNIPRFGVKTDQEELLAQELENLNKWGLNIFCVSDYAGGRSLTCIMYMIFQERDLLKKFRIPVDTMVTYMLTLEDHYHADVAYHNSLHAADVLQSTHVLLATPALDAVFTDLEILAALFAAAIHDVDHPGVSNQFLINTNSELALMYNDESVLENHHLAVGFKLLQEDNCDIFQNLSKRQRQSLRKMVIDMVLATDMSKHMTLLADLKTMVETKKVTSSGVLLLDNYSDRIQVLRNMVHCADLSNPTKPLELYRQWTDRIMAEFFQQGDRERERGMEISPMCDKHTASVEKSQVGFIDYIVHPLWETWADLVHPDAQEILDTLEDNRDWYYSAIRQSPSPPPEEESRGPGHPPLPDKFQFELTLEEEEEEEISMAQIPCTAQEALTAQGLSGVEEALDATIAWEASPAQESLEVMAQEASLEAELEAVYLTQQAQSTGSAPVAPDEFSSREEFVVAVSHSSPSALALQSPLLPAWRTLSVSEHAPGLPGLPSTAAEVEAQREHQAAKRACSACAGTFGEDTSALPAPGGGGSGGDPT
T3 sequence (Q14432 whole entry): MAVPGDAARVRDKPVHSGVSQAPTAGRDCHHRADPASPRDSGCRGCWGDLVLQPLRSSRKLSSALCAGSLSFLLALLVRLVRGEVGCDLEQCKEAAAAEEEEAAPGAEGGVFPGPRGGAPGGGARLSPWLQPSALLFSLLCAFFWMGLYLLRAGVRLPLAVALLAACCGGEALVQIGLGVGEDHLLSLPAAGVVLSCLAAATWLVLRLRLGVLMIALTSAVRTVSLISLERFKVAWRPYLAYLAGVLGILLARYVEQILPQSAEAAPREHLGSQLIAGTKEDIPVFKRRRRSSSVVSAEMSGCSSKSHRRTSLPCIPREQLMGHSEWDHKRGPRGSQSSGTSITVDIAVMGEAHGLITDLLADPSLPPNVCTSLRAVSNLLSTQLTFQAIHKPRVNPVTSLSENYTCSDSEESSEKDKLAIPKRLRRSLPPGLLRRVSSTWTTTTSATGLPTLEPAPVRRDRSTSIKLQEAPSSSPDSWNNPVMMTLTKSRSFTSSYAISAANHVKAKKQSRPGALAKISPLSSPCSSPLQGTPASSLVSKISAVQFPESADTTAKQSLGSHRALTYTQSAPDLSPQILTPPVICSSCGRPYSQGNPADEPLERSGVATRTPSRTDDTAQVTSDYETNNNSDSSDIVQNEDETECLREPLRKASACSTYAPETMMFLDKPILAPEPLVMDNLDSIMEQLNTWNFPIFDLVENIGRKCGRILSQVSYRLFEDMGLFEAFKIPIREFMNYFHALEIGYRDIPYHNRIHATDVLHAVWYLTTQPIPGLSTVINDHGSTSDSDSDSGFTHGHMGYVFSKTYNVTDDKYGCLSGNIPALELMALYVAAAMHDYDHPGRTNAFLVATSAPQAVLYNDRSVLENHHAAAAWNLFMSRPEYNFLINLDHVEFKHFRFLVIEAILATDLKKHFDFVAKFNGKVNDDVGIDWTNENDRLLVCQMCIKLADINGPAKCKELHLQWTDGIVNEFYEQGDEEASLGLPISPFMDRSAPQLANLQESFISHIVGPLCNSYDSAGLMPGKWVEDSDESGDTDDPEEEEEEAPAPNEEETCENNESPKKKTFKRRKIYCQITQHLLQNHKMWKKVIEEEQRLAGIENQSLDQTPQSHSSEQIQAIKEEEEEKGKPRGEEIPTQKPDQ
T2 sequence (P54750 whole entry): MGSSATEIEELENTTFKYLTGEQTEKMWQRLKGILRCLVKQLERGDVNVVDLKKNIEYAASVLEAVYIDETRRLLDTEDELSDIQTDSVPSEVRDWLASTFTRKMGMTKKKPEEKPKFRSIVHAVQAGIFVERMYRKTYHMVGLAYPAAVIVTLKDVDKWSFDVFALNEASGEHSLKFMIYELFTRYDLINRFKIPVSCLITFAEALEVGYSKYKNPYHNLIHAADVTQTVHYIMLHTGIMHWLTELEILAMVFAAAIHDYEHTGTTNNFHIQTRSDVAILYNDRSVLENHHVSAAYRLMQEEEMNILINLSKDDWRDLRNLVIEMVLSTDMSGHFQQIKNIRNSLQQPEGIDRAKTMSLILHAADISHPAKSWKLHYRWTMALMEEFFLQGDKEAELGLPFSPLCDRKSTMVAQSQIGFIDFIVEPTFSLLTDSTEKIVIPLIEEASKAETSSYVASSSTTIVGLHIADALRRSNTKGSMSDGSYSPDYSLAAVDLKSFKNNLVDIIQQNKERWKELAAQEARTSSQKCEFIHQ
T4 sequence (Q01064 whole entry): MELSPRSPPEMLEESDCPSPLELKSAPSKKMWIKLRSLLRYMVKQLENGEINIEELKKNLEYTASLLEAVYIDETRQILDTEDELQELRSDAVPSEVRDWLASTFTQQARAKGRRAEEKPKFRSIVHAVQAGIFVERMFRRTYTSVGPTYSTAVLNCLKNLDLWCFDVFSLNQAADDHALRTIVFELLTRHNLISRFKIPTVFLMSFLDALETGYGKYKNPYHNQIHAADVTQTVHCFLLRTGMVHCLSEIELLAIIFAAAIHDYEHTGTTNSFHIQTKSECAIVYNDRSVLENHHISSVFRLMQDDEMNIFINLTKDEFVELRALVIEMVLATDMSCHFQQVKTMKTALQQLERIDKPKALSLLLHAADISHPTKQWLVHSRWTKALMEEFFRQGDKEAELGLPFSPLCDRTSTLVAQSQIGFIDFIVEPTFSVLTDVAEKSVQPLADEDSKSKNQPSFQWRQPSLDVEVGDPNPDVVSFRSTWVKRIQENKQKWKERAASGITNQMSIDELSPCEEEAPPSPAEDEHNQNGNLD
T5 sequence (Q07343 whole entry): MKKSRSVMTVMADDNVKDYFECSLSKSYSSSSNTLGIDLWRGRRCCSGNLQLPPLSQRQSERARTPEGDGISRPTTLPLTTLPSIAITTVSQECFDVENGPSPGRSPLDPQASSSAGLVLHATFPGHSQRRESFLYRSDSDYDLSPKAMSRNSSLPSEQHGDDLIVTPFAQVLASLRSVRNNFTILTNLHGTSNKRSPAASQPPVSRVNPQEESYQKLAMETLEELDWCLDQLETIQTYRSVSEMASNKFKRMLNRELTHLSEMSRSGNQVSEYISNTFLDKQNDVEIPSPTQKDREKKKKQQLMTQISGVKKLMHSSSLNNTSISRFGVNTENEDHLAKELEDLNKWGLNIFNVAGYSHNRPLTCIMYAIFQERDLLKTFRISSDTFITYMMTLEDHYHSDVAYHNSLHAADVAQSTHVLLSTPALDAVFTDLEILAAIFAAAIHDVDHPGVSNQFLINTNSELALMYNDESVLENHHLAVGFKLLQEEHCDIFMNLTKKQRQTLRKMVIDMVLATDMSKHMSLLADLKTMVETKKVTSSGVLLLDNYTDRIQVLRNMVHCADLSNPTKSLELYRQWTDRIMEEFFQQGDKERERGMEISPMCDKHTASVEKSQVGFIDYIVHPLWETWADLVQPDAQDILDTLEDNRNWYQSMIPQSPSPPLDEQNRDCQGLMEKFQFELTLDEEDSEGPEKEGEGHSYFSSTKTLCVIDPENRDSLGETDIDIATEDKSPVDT

IC50 (PDE4A)	IC50 (PDE1A)	Compound	IC50 (PDE5A)	IC50 (PDE3A)	IC50 (PDE1B)	effect on Ca2+ influx in lung fibroblasts (MRC-5 cells; 10 µM, acute application)	increase in average Ca2+ response area over baseline (MRC-5 cells; 10 µM, acute application)	IC50 (PDE4B)	decrease of TGF-β1-induced nuclear localization of p-Smad-2 [1]	Ca2+ responses under TRPA1 inhibition by HC-030031 (MRC-5 cells; 145 10 µM in the presence of HC-030031 10 µM)
16.4 µM	0.11 µM	CC(C)Cn1c(=O)n(C)c(=O)c2[nH]cnc21 [IBMX, 3-isobutyl-1-methyl-3,7-dihydro-1H-purine-2,6-dione, reference compound]	45.1 µM	0.71 µM	35.7 µM					
58.1 µM		COc1nc2c(c(=O)n(C)c(=O)n2C)n1CC(=O)Nc1ccc(C(C)(C)C)cc1 [Compound 869, N-(4-(tert-butyl)phenyl)-2-(8-methoxy-1,3-dimethyl-2,6-dioxo-1,2,3,6-tetrahydro-7H-purin-7-yl)acetamide]				inhibited Ca^2+ influx				
4.75 µM	7.24 µM	Cn1c(=O)c2c(nc(NCc3ccco3)n2CCCC(=O)NN=Cc2ccc(O)cc2O)n(C)c1=O [Compound 832, N′-(2,4-dihydroxybenzylidene)-4-(8-((furan-2-ylmethyl)amino)-1,3-dimethyl-2,6-dioxo-1,2,3,6-tetrahydro-7H-purin-7-yl)butanehydrazide]					two-fold	4.4 µM	a slight decrease	

Compound	IC50 (PDE4A)	IC50 (PDE1A)	IC50 (PDE5A)	IC50 (PDE3A)	IC50 (PDE1B)	effect on Ca2+ influx in lung fibroblasts (MRC-5 cells; 10 µM, acute application)	increase in average Ca2+ response area over baseline (MRC-5 cells; 10 µM, acute application)	IC50 (PDE4B)	decrease of TGF-β1-induced nuclear localization of p-Smad-2 [1]	Ca2+ responses under TRPA1 inhibition by HC-030031 (MRC-5 cells; 145 10 µM in the presence of HC-030031 10 µM)
CCCCOc1nc2c(c(=O)n(C)c(=O)n2C)n1CCCC(=O)Nc1cc(C(C)(C)C)ccc1O [Compound 145, 4-(8-butoxy-1,3-dimethyl-2,6-dioxo-1,2,3,6-tetrahydro-7H-purin-7-yl)-N-(5-(tert-butyl)-2-hydroxyphenyl)butanamide]	1.59 µM		104 µM	0.18 µM	2.69 µM		four-fold		57%	failed to induce Ca^2+ responses
